{"source": "patent US7217570B2", "about": "“Organotypic intestinal culture and methods of use thereof” (The Wistar Institute of Anatomy and Biology, priority 2001, dated 2007)", "key": {"[1]": {"test_system": "enteric epithelial cells", "test": "Growth factor modulation of organotypic culture in reduced or modified media (Example 2)", "type": "cell-based, human", "details": "growth factor added individually to base medium (MCDB 201/L15, transferrin, antibiotics)", "protocol": "To determine the role of growth factors on proliferation of colonic epithelial cells, this growth medium was modified by changing combinations of growth factors and deleting serum. Keratinocyte growth factor (KGF, R&D Systems) at 20 ng/ml was also tested as part of 23 growth factor combinations. Total relative cell numbers of a specific type were counted as an average of all nuclei counts from a minimum of 3 randomly selected cross-sections of a reconstruct. Goblet cells were counted based on their typical morphology and positive Alcian staining in at least 3 randomly selected slides. Proliferation rates in % were established by counting the number of BrdU or Ki-67-positive nuclei per total epithelial cell nuclei of section. Apoptotic cells were counted in H&E-stained sections (Vagunda, V. et al. 2000 Anal. Quant. Cytol. Histol., 22:307–310). Apoptotic bodies and nuclei were determined according to the size and numbers of the fragments. Apoptosis was calculated as percentage of total nuclei per section (Kerr, J F. et al. 1972 Br. J. Cancer, 26:239–257) To define the role of critical growth factors supporting growth and differentiation of the enteric epithelial cells, an organotypic culture, such as that described in Example 1, was grown in medium in which the number of supplements was reduced. In other experiments, the growth factors, including insulin, EGF, SCF, ET-3, KGF, bFGF, or AMF were added individually to the base medium (MCDB 201/L15 medium with transferrin and antibiotics). In each case, epithelial cell proliferation was not supported in the organotypic culture. In another experiment, the organotypic cultures were prepared by seeding epithelial cells on the artificial stroma in complete medium C or medium L/S/E or medium L. Medium C contained transferrin, insulin, bFGF, EGF, ET-3, HGF, LIF, SCF, AMF, and 1% FCS as supplements. L/S/E medium contained transferrin, insulin, LIF, SCF, ET-3, EGF, and 1% FCS. L medium contained transferrin, insulin, LIF, EGF, and 1% FCS. Sections of the cultures were stained with H&E and Alcian blue after 12 hours (day 0) and 4 days. Values were generated SD of 5 fields from 2 independent experiments. […] The L/S/E-supplemented base medium (LIF, SCF, ET-3, EGF, insulin, and 1% FCS) induced formation by day 4 of highly disorganized structures of stratified and pseudostratified epithelial cells. The epithelium was hyperplastic with morphological atypia. In contrast to results obtained with complete growth medium, only the upper surface rather than the entire artificial stroma was covered with epithelium."}, "[2]": {"test_system": "fibroblasts", "test": "Constriction of collagen matrix by embedded fibroblasts and fibroblast numbers", "type": "cell-based, human", "protocol": "Human smooth muscle cells HIAS119, kindly provided by Dr. E. Levine, The Wistar Institute, were isolated from large blood vessels and maintained in medium M199, supplemented with 10% FCS, 2 mM L-glutamine, and 50 μg/ml bovine hypothalamus extract (Oda, D. et al, 1998 In Vitro Cell. Dev. Biol. Anim., 34, 46–52). Fibroblasts at 8×10^5/ml were embedded in collagen type I (Organogenesis, Canton, Mass.) to a final concentration of 0.9 to 1.1 mg/ml in DMEM supplemented with 50 μM vitamin C (Sigma), 1.66 mM L-glutamine (GIBCO-BRL), and 1% FCS. The suspension was neutralized, pH 7.2, using 7.5% sodium bicarbonate. Chambered slides, Lab-Tek 8 wells (Nunc International, Rochester, N.Y.), were filled with 0.2 ml of the collagen and cell suspension. […]\n(§1) Cell numbers were determined per high-power field (0.11×0.18 mm) using 40× magnification as the mean (±SD) of 364 measurements. Constriction of collagen matrices was measured as the length of the longitudinal axis of collagen harvested on days 0.5, 4 and 10 (mean±SD of 32 measurements of 4 samples. Positive cells per area were counted in 12 consecutive fields per cross-section (mean±SD of 16 areas of 2 random cross-sections from 4 samples. Relative number of positive cells per area was expressed as mean±SD of positive/total cells from 16 areas of 2 random cross-sections for each sample. Statistical significance was tested using Student's t-test."}, "[3]": {"test_system": "colonic epithelial cells", "test": "Proliferation of organotypic colon cultures in LIF-supplemented base medium (BrdU, 3H-thymidine, cell numbers per area)", "type": "cell-based, human", "protocol": "Colonic epithelial cells described above were seeded on top of collagen gels containing embedded fibroblasts described above in 0.4 ml of complete growth medium. After seeding onto the matrix of collagen type I with embedded fibroblasts, samples were incubated at 37° C. in 5% CO2 for 60–90 minutes in a low volume of medium (50–100 μl) to enhance attachment. The epithelial cells and clusters attached within 60 minutes. The wells were then filled with complete growth medium. Medium was changed daily for 10 days, then three times per week for an additional 21 days.\nProliferation of organotypic cultures was determined by adding bromodeoxyuridine (BrdU) to the medium according to the manufacturer's instructions (Amersham Pharmacia Biotech, Inc., Piscataway, N.J.). Thymidine incorporation was measured in cells, incubated with 1 μCi ^3H-thymidine/well for 18 hours before harvest and determination of radioactivity.\nas §1"}, "[4]": {"test_system": "colonic epithelial cells", "test": "Differentiated cells (goblet, enteroendocrine, carbonic anhydrase II) in organotypic colon cultures with LIF", "type": "cell-based, human", "text": "The organotypic cultures were characterized as follows. Harvested organotypic cultures were fixed in 1.5% paraformaldehyde and embedded in paraffin. For electron microscopy (EM), cultures were fixed in 4% glutaraldehyde. For histochemistry and immunohistochemistry, 5-μm thick sections were cut from the paraffin beds and stained with hematoxylin and eosin (H&E) or Alcian Blue using standard procedures.\nGoblet cells were detected using Alcian Blue and EM. Enteroendocrine cells were identified by chromogranin A staining and EM. Immunohistochemical staining was done with monoclonal antibodies specific for: BrdU (Amersham), Ki67 (DAKO, Carpinteria, Calif.), α-smooth muscle actin (SMA) (Sigma), cytokeratin 19 (CK 19; antibody BA17 [33] kindly provided by Dr. J. Kovarik, Brno, Czech Rep.), chromogranin A (Novocastra, New Castle Upon Tyne, UK) and carbonic anhydrase II (The Binding Site Limited, Birmingham, UK). Immunohistochemistry was performed by standard techniques as described (Dai, C. Y. et al, 2000 Gastroenterology, 119, 929–942). Alkaline phosphatase activity of paraffin-embedded samples was detected using colorimetric substrate (AP Substrate Kit, SK 15100, Vector, Burlingame, Calif.).\nas §1"}, "[5]": {"test_system": "colorectal carcinoma cell line HT29", "test": "Growth of carcinoma cell line on laminin substrates", "type": "cell-based", "details": "Laminin-2 compared to Laminin-1", "text": "Quantitative analysis of the growth fractions confirmed that the different laminins control growth and differentiation. […] Enteric epithelial cells spread similarly on substrates of Laminins-2 and —I bound to plastic of culture dishes."}, "[6]": {"test_system": "colonic epithelial cells", "test": "Coating of artificial stroma or plastic with extracellular matrix proteins (Example 3)", "type": "cell-based, human", "text": "Another embodiment of an organotypic culture prepared as described substantially as in Example 2, has an additional component. An extracellular matrix was applied to the organotypic cultures by coating the artificial stroma with matrix proteins Laminin-2 […] (Life Technologies, Rockville, Md.), Laminin-1 […] (Sigma), or Matrigel® gel matrix (Collaborative Research, Bedford, Mass.), which contains Laminin-1 and other matrix proteins, such as collagen IV and […] (Burgeson, R E., et al. 1994 Matrix Biol., 14:209–211 and Page, KC. et al. 1990 J. Biol. Reprod., 43:659–664). Fifty to 100 μl of base medium containing 20 ng/ml of laminins were added onto the surface of the artificial stroma for 60 minutes at 37° C. Matrigel® matrix was diluted 1:5 to 1:10 in base medium before use. After incubation, unbound laminins or Matrigel® matrix were removed by two washings with base medium. The organotypic cultures were incubated at 37° C. in 5% CO2 in growth medium, which was changed daily for 7 days, then three times per week for an additional 21 days. Growth and differentiation of colonic epithelium in growth medium was regulated by ECM components at the interface between the stroma and the epithelial layer. These ECM experiments were done in base medium, supplemented with LIF, SCF, ET3, EGF, insulin, and 1% FCS. […]"}}, "note": "“Also recorded” adds a separate entry of the source. Where no end group is shown, it is not given here."}
{"substance": "insulin", "values": [{"measurement": "epithelial cell proliferation", "setting": "[1]", "value": "not supported"}]}
{"substance": "basic fibroblast growth factor [bFGF]", "values": [{"measurement": "epithelial cell proliferation", "setting": "[1]", "value": "not supported"}]}
{"substance": "leukemia inhibitory factor [LIF]", "values": [{"measurement": "collagen constriction by fibroblasts", "setting": "[2]; LIF in base medium", "value": "did not change"}, {"measurement": "fibroblast numbers", "setting": "[2]; LIF-stimulated cultures versus control", "value": "no differences"}, {"measurement": "3H-thymidine incorporation", "setting": "[3]; BM+LIF compared with BM only, after 2 days", "value": "Significant stimulation"}, {"measurement": "Growth of epithelial cells", "setting": "[3]; LIF added to base medium, organotypic culture", "value": "significantly stimulated"}, {"measurement": "number of colonic epithelial cells", "setting": "[3]; LIF-containing base medium versus base medium", "value": "significantly higher"}, {"measurement": "numbers of BrdU-positive and total epithelial cells", "setting": "[3]; LIF-stimulated cultures", "value": "significantly higher"}, {"measurement": "expression of differentiation marker carbonic anhydrase II", "setting": "[4]; LIF only added to base medium", "value": "did not express"}, {"measurement": "percentage of goblet cells among total cells and per area", "setting": "[4]; LIF, FIG. 3A", "value": "lack of stimulation"}, {"measurement": "relative numbers of goblet cells (of all enterocytes)", "setting": "[4]; LIF-cultured, p=0.81 versus control base medium", "value": "3.8±3.5", "unit": "%"}, {"measurement": "numbers of goblet cells per area", "setting": "[4]; LIF-stimulated samples, p=0.13 versus samples without LIF", "value": "2.25±1.66"}, {"measurement": "relative numbers of enteroendocrine cells", "setting": "[4]; in the presence of LIF", "value": "significantly decreased; also recorded: decrease"}]}
{"substance": "Laminin-2: matrix protein Laminin-2 α2β1γ1 (Life Technologies)", "values": [{"measurement": "growth of HT29 cells", "setting": "[5]", "value": "better growth"}, {"measurement": "control of growth and differentiation of colonic epithelium", "setting": "[6]; coating of artificial stroma, quantitative analysis of growth fractions", "value": "stimulated cell growth"}, {"measurement": "survival of epithelial cells by day 5", "setting": "[6]; laminin bound to plastic of culture dishes", "value": "survived only with Laminin-2"}]}
{"substance": "endothelin-3 (CTCFTYKDKECVYYCHLDIIW; ends and bridges not checked; cysteine pairing not given here; UniProt P14138 97-117, looked up) [ET-3, endothelin-3 (Peninsula Labs)]", "values": [{"measurement": "epithelial cell proliferation", "setting": "[1]", "value": "not supported"}]}
{"substance": "stem cell factor [SCF]", "values": [{"measurement": "epithelial cell proliferation", "setting": "[1]", "value": "not supported"}]}
{"substance": "autocrine motility factor [AMF]", "values": [{"measurement": "epithelial cell proliferation", "setting": "[1]", "value": "not supported"}]}
